Test results reported in the Kinase Knowledgebase extract (Sharma et al. 2016).

Legend:
PIK3CA (human) [1] = target: PIK3CA (human) (UniProt P42336); test: Enzyme Assay
PIK3CA (human) [2] = target: PIK3CA (human) (UniProt P42336); test: Assessment of Cell Proliferation in MDA-MB-361.1 Cells; settings: mda-mb-361
PIK3CA (human) [3] = target: PIK3CA (human) (UniProt P42336); test: Assessment of Cell Proliferation in PC3 Cells; settings: pc-3

Sequence of PIK3CA (human) (P42336 whole entry, looked up): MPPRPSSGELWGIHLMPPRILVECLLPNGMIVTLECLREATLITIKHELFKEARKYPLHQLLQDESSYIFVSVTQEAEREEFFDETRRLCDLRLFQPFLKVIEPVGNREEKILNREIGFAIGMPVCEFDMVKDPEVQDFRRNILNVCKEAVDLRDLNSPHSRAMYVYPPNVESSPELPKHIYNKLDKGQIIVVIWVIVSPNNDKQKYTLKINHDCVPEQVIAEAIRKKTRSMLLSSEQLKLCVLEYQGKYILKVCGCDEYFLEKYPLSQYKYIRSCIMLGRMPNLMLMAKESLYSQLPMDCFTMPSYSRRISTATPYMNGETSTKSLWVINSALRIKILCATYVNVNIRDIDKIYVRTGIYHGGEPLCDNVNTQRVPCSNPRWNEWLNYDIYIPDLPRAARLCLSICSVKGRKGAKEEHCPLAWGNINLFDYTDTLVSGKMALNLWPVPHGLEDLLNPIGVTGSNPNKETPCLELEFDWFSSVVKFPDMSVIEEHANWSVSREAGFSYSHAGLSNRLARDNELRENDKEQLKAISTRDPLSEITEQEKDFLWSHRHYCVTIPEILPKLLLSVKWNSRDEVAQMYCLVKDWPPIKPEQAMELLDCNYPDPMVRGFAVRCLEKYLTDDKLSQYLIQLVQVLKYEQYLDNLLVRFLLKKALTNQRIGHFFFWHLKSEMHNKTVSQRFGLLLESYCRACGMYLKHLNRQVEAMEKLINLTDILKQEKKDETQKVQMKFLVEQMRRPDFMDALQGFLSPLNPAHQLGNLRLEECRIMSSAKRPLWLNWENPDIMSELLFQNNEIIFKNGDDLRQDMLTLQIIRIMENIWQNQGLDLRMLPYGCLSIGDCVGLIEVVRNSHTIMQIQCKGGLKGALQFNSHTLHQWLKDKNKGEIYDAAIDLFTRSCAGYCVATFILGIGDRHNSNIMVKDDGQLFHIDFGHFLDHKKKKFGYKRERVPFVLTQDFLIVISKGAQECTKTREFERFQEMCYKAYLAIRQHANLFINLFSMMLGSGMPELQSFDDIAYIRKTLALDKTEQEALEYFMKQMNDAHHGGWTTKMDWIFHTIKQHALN

Compound | IC50 (PIK3CA (human) [1]) | EC50 (PIK3CA (human) [2]) | EC50 (PIK3CA (human) [3])
Nc1ncc(-c2nc(N3CCOCC3)c3c(n2)N2CCC[C@H]2CO3)cn1 | 77.9 nM | 3200 nM | 2000 nM
Nc1ncc(-c2nc(N3CCOCC3)c3nc4n(c3n2)CCOC4)cn1 | 4.32 nM | – | –
CC1(C)CN(c2nc(-c3cnc(N)nc3)nc3c2nc2n3CCOC2(C)C)CCO1 | 201 nM | 1500 nM | 1400 nM
CC1=COC(C)(C)c2nc3c(N4CCOCC4)nc(-c4cnc(N)nc4)nc3n21 | 4.73 nM | – | –
Nc1ncc(-c2nc(N3CCOCC3)c3nc4n(c3n2)CCC4)cn1 | 8.26 nM | – | –
Nc1ccc(-c2nc(N3CCOCC3)c3nc4n(c3n2)CCCC4)cn1 | 50.7 nM | – | –
C[C@@H]1CN(c2nc(-c3cnc(N)nc3)nc3c2nc2n3CCOC2(C)C)C[C@H](C)O1 | 14 nM | 3100 nM | 3800 nM
FC(F)(F)C1OCCn2c1nc1c(N3CCOCC3)nc(-c3cccc4[nH]ncc34)nc12 (centres undefined) | 45.2 nM | 4400 nM | 6900 nM
Nc1ncc(-c2nc(N3CCOCC3)c3nc4n(c3n2)CCCO4)cn1 | 6.84 nM | – | –
Nc1ncc(-c2nc(N3CCOCC3)c3nc4n(c3n2)CCO[C@H]4C(F)(F)F)cn1 | 3.57 nM | 424 nM | 697 nM
Nc1ncc(-c2nc(N3CCOCC3)c3nc4n(c3n2)CCO[C@@H]4C(F)(F)F)cn1 | 3.45 nM | – | –
CC1(C)OCCn2c1nc1c(N3C[C@@H]4C[C@H]3CO4)nc(-c3cnc(N)nc3)nc12 | 394 nM | 3400 nM | 3600 nM
Nc1ncc(-c2nc(N3CCOCC3)c3nc4n(c3n2)CCCC4)cn1 | 3.88 nM | – | –
CC1(C)CCn2c(nc3c(N4CCOCC4)nc(-c4cnc(N)nc4)nc32)O1 | 5.09 nM | 958 nM | 1800 nM
Oc1cccc(-c2nc(N3CCOCC3)c3nc4n(c3n2)CCOC4C(F)(F)F)c1 (centres undefined) | 79.7 nM | 920 nM | 1100 nM
Nc1ncc(-c2nc(N3CCOCC3)c3nc4n(c3n2)CCC2(CC2)O4)cn1 | 1.37 nM | – | –
CC1NC(=O)Cn2c1nc1c(N3CCOCC3)nc(-c3cnc(N)nc3)nc12 (centres undefined) | 4.28 nM | – | –
CN1CCn2c(nc3c(N4CCOCC4)nc(-c4cnc(N)nc4)nc32)C1=O | 21.5 nM | – | –
Nc1ccc(-c2nc(N3CCOCC3)c3nc4n(c3n2)CCOC4C(F)(F)F)cn1 (centres undefined) | 45.2 nM | – | –
Nc1cc(C(F)(F)F)c(-c2nc(N3CCOCC3)c3nc4n(c3n2)CCOC4)cn1 | 11.2 nM | – | –
CC1(C)OCCc2c1sc1c(N3CCOCC3)nc(-c3cnc(N)nc3)nc21 | 1 nM | 237 nM | 215 nM
CC1c2nc3c(N4CCOCC4)nc(-c4cnc(N)nc4)nc3n2CCN1C (centres undefined) | 6.89 nM | 889 nM | 1900 nM

Next, values leading:

IC50 (PIK3CA (human) [1]) | EC50 (PIK3CA (human) [2]) | EC50 (PIK3CA (human) [3]) | Compound
49 nM | – | – | CC(=O)Nc1ccc(-c2nc(N3CCOCC3)c3nc4n(c3n2)CCOC4(C)C)cn1
382 nM | – | – | CC1(C)OCCn2c1nc1c(N3CCOCC3)nc(-c3cn[nH]c3)nc12
242 nM | – | – | CC(=O)Nc1ncc(-c2nc(N3CCOCC3)c3nc4n(c3n2)CCOC4(C)C)cn1
685 nM | – | – | CC1(C)OCCn2c1nc1c(N3CCOCC3)nc(-c3ccnc(N)c3)nc12
337 nM | 1200 nM | 1300 nM | CC(C)NC(=O)Nc1ccc(-c2nc(N3CCOCC3)c3nc4n(c3n2)CCOC4(C)C)cc1
– | 10000 nM | 10000 nM | CN(C)c1cnc(-c2nc(N3CCOCC3)c3nc4n(c3n2)CCOC4(C)C)cn1
14 nM | – | – | CC1(C)OCCn2c1nc1c(N3CCOCC3)nc(-c3cnc4[nH]ccc4c3)nc12
5.96 nM | – | – | CC[C@@]1(C)OCCn2c1nc1c(N3CCOCC3)nc(-c3cnc(N)nc3)nc12
2.45 nM | – | – | Nc1ncc(-c2nc(N3CCOCC3)c3nc4n(c3n2)CCOC42COC2)cn1
– | 10000 nM | 10000 nM | CC(C)Cn1cc(-c2nc(N3CCOCC3)c3nc4n(c3n2)CCOC4(C)C)cn1
18.6 nM | – | – | CC1(C)OCCn2c1nc1c(N3CCOCC3)nc(-c3ccc(N)nc3)nc12
541 nM | – | – | CC1(C)OCCn2c1nc1c(N3CCOCC3)nc(-c3ccc(N)cc3)nc12
6.71 nM | – | – | CNC(=O)Nc1ccc(-c2nc(N3CCOCC3)c3nc4n(c3n2)CCOC4(C)C)cc1
3.89 nM | – | – | CC1(C)OCCn2c1nc1c(N3CCOCC3)nc(-c3cnc(N)cc3C(F)(F)F)nc12
41.7 nM | – | – | CCNC(=O)Nc1ccc(-c2nc(N3CCOCC3)c3nc4n(c3n2)CCOC4(C)C)cc1
638 nM | – | – | CC1(C)OCCn2c1nc1c(N3CCOCC3)nc(-c3ccccc3NS(C)(=O)=O)nc12
19.8 nM | – | – | CC1(C)OCCn2c1nc1c(N3CCOCC3)nc(-c3cccc4[nH]ncc34)nc12
0.831 nM | 94 nM | 185 nM | CC1(C)OCCn2c1cc1c(N3CCOCC3)nc(-c3cnc(N)nc3)nc12
3.11 nM | – | – | CC[C@]1(C)OCCn2c1nc1c(N3CCOCC3)nc(-c3cnc(N)nc3)nc12
– | 10000 nM | 10000 nM | CC1(C)OCCn2c1nc1c(N3CCOCC3)nc(-c3ccc(N)cn3)nc12
4.58 nM | – | – | CC1(C)OCCn2c1nc1c(N3CCOCC3)nc(-c3cccc(O)c3)nc12
35.2 nM | – | – | CC1(C)OCCn2c1nc1c(N3CCOCC3)nc(-c3cncc(C(N)=O)c3)nc12
2100 nM | 315 nM | 208 nM | CCNC(=O)Nc1ccc(-c2nc(N3CCOCC3)c3c(n2)C2(C)CCOC2N3C)cc1 (centres undefined)
